This experiment has as its target T1, Aβ42 (Homo sapiens, UniProt P05067).
T1 construct: amyloid beta (1–42) (Aβ42) self‐aggregation; purchased GenicBio Limited (Shanghai, China)
The experiment in a line: Inhibition of Aβ42 self-aggregation (Thioflavin T fluorescence). It is filed as biochemical. To be noted: read-out: Inhibition of Aβ42 self-aggregation, %.

For two molecules, inhibition results are on record in paper PMC13400319 (Chemmedchem, 2026).

The inhibition is the drop in the measured response relative to a control, in per cent.

Where two headings read alike, the source gives them in different places.

T1 sequence (P05067 672-713 limits assumed): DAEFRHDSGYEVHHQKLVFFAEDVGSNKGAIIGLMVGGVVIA
Description: Inhibition of β-amyloid (1– 42) (Aβ42) self-aggregation
Inhibition of Aβ42 self-aggregation by test compounds was studied using the thioflavin T (ThT)
fluorescence method [8- 10] with minor modifications as described in detail in [11]. Lyophilized
HFIP- pretreated Aβ42 (GenicBio Limited (Shanghai, China), 1 mg) was dissolved in DMSO to
obtain a stable 500 μM solution.
pH 8.0 were incubated for 24 h at 37°C in the absence or presence of 100 μM test compounds.
Myricetin in the same concentration was used as reference. After incubation, 5 μM ThT in 50
mM glycine-NaOH buffer pH 8.5 was added, and the fluorescence was measured at 440 nm
Each assay was run in triplicate. The degree of
inhibition of Aβ42 self-aggregation by the studied compounds (%) was calculated by the
of inhibitor, respectively, after subtracting the fluorescence of respective blanks.

For `Nc1c2c(nc3c1CCC3)CCCC2` [Amiridine, amiridine], the inhibition at 100 µM (Aβ42 50 µM, compound 100 µM) was determined as 6.4 ± 0.5%.

Take `O=c1c(O)c(-c2cc(O)c(O)c(O)c2)oc2cc(O)cc(O)c12` [Myricetin]: the inhibition at 100 µM came out at 74.7 ± 5.2%.
